From publication PMC6044451 (Journal of medicinal chemistry, 2018)

Tested on: HIV-1LAI
Test: Antiviral activity in MT-2 human T-lymphoid cells exposed to HIV-1LAI
Format: cell-based

Question: How did the “improvement in antiviral activity compared to inhibitor 4b” value (MT-2 cells exposed to HIV-1LAI, versus 4b) turn out when `COc1ccc(S(=O)(=O)N(CC(C)C)C[C@@H](O)[C@H](Cc2ccccc2)NC(=O)O[C@H]2C[C@H]3CO[C@H]4OCC[C@@H]2[C@@H]34)cc1` [Inhibitor 4c, (2aR,2a^1R,4S,4aR,7aR)-Octahydro-2H-1,7-dioxacyclopenta[cd]inden-4-yl ((2S,3R)-3-hydroxy-4-((N-isobutyl-4-methoxyphenyl)sulfonamido)-1-phenylbutan-2-yl)carbamate] was run?
Answer: Its value is 4 fold.

Question: Which IC50 (Human immunodeficiency virus 1, MT2, in Homo sapiens, read-out: antiviral IC50) does the source give for `CC(C)(C)NC(=O)[C@@H]1C[C@@H]2CCCC[C@@H]2CN1C[C@@H](O)[C@H](Cc1ccccc1)NC(=O)[C@H](CC(N)=O)NC(=O)c1ccc2ccccc2n1` [SQV, saquinavir] here?
Answer: Its IC50 is 0.021 µM.
